Reference: paper PMC4685510, “A Cell Biologist’s Field Guide to Aurora Kinase Inhibitors” (Frontiers in Oncology, 2015)

Experiments:
Test in all cases: biochemical
Assay type in all cases: biochemical
[1] = target: 363 human kinases (including Aurora A/B/C) (Homo sapiens, UniProt P43405); details: SYK; for remaining activity at 0.1 µM: 100 nM; for remaining activity at 0.1 µM / remaining activity at 0.5 µM: read-out: % Enzyme Activity (relative to DMSO controls)
Text: (§1) However, the Aurora A/B selectivity ratios derived from our in vitro and in vivo data can be compared to prioritize inhibitors.

[2] = target: T1, 363 human kinases (including Aurora A/B/C) (Homo sapiens, UniProt Q9BXA7); details: STK22D/TSSK1; for remaining activity at 0.1 µM: 100 nM; for remaining activity at 0.1 µM / remaining activity at 0.5 µM: read-out: % Enzyme Activity (relative to DMSO controls)
T1 sequence (Q9BXA7 1-367): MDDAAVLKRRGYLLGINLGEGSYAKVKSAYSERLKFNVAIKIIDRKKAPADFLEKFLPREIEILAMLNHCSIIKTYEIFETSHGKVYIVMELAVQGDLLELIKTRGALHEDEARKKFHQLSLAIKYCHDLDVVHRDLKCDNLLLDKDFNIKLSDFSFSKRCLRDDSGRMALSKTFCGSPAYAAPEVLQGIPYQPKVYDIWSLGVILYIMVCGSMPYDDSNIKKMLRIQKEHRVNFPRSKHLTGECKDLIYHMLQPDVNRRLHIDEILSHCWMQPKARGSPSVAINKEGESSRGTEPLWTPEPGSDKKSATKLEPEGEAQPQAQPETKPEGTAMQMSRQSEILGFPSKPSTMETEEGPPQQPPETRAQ
Text: as §1

[3] = target: T2, 363 human kinases (including Aurora A/B/C) (Homo sapiens, UniProt P21709); details: EPHA1, [ATP] 20 µM; for remaining activity at 0.1 µM: 100 nM; for remaining activity at 0.1 µM / remaining activity at 0.5 µM: read-out: % Enzyme Activity (relative to DMSO controls)
T2 sequence (P21709 26-976): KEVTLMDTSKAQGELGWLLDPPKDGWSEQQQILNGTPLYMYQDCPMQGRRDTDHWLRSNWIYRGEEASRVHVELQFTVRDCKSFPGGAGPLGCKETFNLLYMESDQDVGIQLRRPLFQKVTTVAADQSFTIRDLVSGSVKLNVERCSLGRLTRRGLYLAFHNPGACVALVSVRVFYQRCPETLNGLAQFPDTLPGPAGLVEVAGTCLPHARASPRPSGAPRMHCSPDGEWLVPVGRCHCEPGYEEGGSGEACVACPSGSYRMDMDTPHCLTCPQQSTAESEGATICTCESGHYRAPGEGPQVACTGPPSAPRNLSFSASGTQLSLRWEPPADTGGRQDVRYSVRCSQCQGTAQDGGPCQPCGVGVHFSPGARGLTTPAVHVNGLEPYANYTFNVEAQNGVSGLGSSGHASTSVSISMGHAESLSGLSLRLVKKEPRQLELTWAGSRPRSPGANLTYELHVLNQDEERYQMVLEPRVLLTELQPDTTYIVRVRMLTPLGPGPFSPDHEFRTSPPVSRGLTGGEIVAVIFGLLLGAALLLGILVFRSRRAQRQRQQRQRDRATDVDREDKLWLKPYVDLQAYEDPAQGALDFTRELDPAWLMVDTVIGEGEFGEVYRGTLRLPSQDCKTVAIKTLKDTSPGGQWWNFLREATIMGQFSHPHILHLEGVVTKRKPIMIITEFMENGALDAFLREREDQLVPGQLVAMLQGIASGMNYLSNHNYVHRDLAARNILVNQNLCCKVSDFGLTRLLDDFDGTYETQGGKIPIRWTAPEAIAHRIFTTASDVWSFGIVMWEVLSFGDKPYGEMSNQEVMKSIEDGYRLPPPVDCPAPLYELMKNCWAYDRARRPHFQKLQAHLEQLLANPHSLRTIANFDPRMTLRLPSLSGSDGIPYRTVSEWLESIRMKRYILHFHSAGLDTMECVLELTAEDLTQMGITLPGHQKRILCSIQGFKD
Text: as §1

[4] = target: T3, 363 human kinases (including Aurora A/B/C) (Homo sapiens, UniProt Q15835); details: GRK1; for remaining activity at 0.1 µM: 100 nM; for remaining activity at 0.1 µM / remaining activity at 0.5 µM: read-out: % Enzyme Activity (relative to DMSO controls)
T3 sequence (Q15835 1-563): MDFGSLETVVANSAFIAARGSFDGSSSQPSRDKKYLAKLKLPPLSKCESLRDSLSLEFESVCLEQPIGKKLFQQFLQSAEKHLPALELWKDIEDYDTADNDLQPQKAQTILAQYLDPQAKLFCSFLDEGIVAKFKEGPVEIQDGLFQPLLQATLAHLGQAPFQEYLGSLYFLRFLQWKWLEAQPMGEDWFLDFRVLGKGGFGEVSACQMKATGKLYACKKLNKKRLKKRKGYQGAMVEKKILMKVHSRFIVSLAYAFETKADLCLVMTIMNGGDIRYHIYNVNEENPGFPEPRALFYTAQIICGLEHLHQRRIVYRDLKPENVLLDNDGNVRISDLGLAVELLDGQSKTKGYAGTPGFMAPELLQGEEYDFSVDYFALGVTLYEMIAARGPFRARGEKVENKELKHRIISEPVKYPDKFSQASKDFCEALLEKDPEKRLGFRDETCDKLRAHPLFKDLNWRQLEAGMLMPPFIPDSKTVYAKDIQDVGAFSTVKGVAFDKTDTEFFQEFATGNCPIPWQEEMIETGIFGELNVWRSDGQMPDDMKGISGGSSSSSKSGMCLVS
Text: as §1

[5] = target: T4, 363 human kinases (including Aurora A/B/C) (Homo sapiens, UniProt Q32MK0); details: MYLK3; for remaining activity at 0.1 µM: 100 nM; for remaining activity at 0.1 µM / remaining activity at 0.5 µM: read-out: % Enzyme Activity (relative to DMSO controls)
T4 sequence (Q32MK0 1-819): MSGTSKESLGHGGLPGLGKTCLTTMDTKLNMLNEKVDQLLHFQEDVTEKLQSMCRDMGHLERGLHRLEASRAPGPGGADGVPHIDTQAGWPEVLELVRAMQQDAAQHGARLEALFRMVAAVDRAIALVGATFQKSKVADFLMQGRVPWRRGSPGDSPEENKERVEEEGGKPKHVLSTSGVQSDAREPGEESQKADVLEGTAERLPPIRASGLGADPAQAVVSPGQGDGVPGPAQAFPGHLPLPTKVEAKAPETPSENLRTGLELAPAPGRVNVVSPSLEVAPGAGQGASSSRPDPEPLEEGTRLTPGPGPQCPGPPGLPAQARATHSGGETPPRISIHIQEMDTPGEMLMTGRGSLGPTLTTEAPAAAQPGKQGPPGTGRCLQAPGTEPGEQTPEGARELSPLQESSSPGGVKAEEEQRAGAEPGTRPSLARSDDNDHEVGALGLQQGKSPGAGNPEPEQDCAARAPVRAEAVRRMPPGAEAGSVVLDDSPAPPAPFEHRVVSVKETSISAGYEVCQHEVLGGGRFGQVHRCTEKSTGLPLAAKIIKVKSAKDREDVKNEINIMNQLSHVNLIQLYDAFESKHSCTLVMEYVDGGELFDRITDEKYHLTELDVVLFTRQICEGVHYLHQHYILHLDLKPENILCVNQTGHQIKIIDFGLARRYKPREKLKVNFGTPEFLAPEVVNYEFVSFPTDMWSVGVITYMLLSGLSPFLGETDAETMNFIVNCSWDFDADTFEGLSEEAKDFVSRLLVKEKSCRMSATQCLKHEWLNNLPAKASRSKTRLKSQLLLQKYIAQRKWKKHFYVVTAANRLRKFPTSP
Text: as §1

| SMILES | remaining activity at 0.1 µM [1] | remaining activity at 0.1 µM [2] | remaining activity at 0.1 µM [3] | remaining activity at 0.1 µM [4] | remaining activity at 0.1 µM [5] | remaining activity at 0.5 µM ([1]; 500 nM) | remaining activity at 0.5 µM ([2]; 500 nM) | remaining activity at 0.5 µM ([3]; 500 nM) | remaining activity at 0.5 µM ([4]; 500 nM) | remaining activity at 0.5 µM ([5]; 500 nM) | % Enzyme Activity (relative to DMSO controls) ([1]; 500 nM) | % Enzyme Activity (relative to DMSO controls) ([2]; 500 nM) | % Enzyme Activity (relative to DMSO controls) ([3]; 500 nM) | % Enzyme Activity (relative to DMSO controls) ([4]; 500 nM) | % Enzyme Activity (relative to DMSO controls) ([5]; 500 nM) |
| --- | --- | --- | --- | --- | --- | --- | --- | --- | --- | --- | --- | --- | --- | --- | --- |
| CCn1cc(-c2ccnc3[nH]c(-c4cccc(CN(C)C)c4)cc23)c(-c2ccc(NC(=O)N(C)C)cc2)n1 [GSK1070916] | 84.8% | 90.1% | 85.1% | 95.1% | 102% | – | – | – | – | – | – | – | – | – | – |
| O=C(O)[C@]1(Cc2cccc(Nc3nccs3)n2)CC[C@@H](Oc2cccc(Cl)c2F)CC1 [MK-5108] | 93.8% | 106% | 47.6% | 99% | 97.3% | 63.6% | 94.4% | 19.1% | 106% | 99.7% | – | – | – | – | – |
| O=C(c1cccc(Cl)c1F)N1CCN(Cc2cccc(Nc3nccs3)n2)CC1 [MK-8745] | – | – | – | – | – | 83.2% | 93.6% | 58.3% | 101% | 103% | 82.70% | 93.43% | 58.24% | 98.09% | 102.40% |
